From PubChem BioAssay (NCI)
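How tested: cells in 96-well plates exposed to compound for 48 hours at five concentrations. GI50 = concentration required for 50% inhibition of growth. At the TGI there is no net growth.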

Columns and labels:
Experiment in all cases: NCI tumour cell line growth inhibition, 48 h
[1] = tested on: CCRF-CEM leukemia
[2] = tested on: SR leukemia
[3] = tested on: MDA-MB-231 breast
[4] = tested on: K-562 leukemia
[5] = tested on: UO-31 renal
[6] = tested on: HCT-116 colon
[7] = tested on: ACHN renal
[8] = tested on: PC-3 prostate
[9] = tested on: MDA-MB-435
[10] = tested on: HCC-2998 colon
[11] = tested on: HS 578T breast

Row | Compound | TGI [1] | TGI [2] | TGI [3] | TGI [4] | TGI [5] | TGI [6] | TGI [7] | TGI [8] | TGI [9] | TGI [10] | TGI [11] | GI50 [1] | GI50 [4] | GI50 [5] | GI50 [6] | GI50 [10] | GI50 [2] | GI50 [3] | GI50 [7] | GI50 [9]
1 | O=C1c2cc(O)c(O)cc2O[C@H](c2ccc(O)c(O)c2)[C@H]1O | > 100 µM | > 100 µM | > 100 µM | > 100 µM | > 100 µM | > 100 µM | > 100 µM | > 100 µM | > 100 µM | > 100 µM | > 100 µM |  |  |  |  |  |  |  |  | 
2 | Oc1ccc(C(=C(Br)c2ccccc2)c2ccc(O)cc2)cc1 | 32.3 µM |  | 24 µM | 9.07 µM | 19.7 µM | 15.9 µM | 21.7 µM | 19.9 µM | 3.45 µM | 21.2 µM | 22 µM |  |  |  |  |  |  |  |  | 
3 | CSc1nncc(-c2cc3c(c(SC)n2)CCCC3)n1 | > 100 µM | > 100 µM | > 100 µM | > 100 µM | > 100 µM | > 100 µM | > 100 µM | > 100 µM | > 100 µM | > 100 µM |  |  |  |  |  |  |  |  |  | 
4 | O=[N+]([O-])c1ccc(/C=N/Nc2nc3ccccc3[nH]2)o1 | 26.6 µM | 23.6 µM | 70.9 µM | 32.1 µM | 47.5 µM | 36.7 µM |  | 49.2 µM | 18 µM |  | > 100 µM |  |  |  |  |  |  |  |  | 
5 | O=C(CSCC(=O)N/N=C/c1cccc(O)c1)N/N=C/c1cccc(O)c1 |  | > 100 µM | > 100 µM | > 100 µM | > 100 µM | > 100 µM | > 100 µM | > 100 µM | > 100 µM | > 100 µM | > 100 µM |  |  |  |  |  |  |  |  | 
6 | C=C(C#N)C(=O)OCC(CC)CC.C=C(C#N)C(=O)OCC(CC)CC.CS(C)=O.CS(C)=O.Nc1c(N=Nc2ccc(-c3ccc(N=Nc4cc(S(=O)(=O)[O-])c5ccccc5c4N)cc3)cc2)cc(S(=O)(=O)[O-])c2ccccc12.[Pt+2] | > 100 µM |  |  | > 100 µM | > 100 µM | > 100 µM |  |  |  | > 100 µM |  | 30.7 µM | 32.6 µM | > 100 µM | > 65.2 µM | 48.9 µM |  |  |  | 
7 | O=C1c2cc3c(cc2-c2c1c1ccc(Cl)cc1c(=O)n2C[C@H](O)CO)OCO3 | 24.2 µM | 12.7 µM | 1.97 µM | > 100 µM | 0.19 µM |  | 0.111 µM |  | 0.271 µM | 0.701 µM |  | < 0.01 µM | 0.0457 µM | 0.0348 µM |  | 0.122 µM | < 0.01 µM | 0.32 µM | 0.0199 µM | 0.0691 µM
8 | O=C1C(Cl)N(c2ccccc2Cl)C1c1c[nH]c2ccccc12 (centres undefined) | > 100 µM | > 100 µM |  | > 100 µM | > 100 µM | > 100 µM |  |  |  |  |  |  |  |  |  |  |  |  |  | 
9 | CCOC(=O)c1c2c(n(-c3ccc(C)cc3)c1C)-c1ccccc1C(=O)C2(C(=O)OCC)C(=O)OCC | > 100 µM | > 4.64 µM | > 100 µM | > 59.4 µM | > 100 µM | > 72.9 µM | > 100 µM | > 100 µM | 93.5 µM | 69.9 µM | 86.5 µM |  |  |  |  |  |  |  |  | 
10 | CCN(CC)CCNc1ccc2ncn3c4ccc(O)cc4c(=O)c1c23 | 16.5 µM | 2.27 µM | 14.1 µM | 34.4 µM | 6.94 µM | 13 µM | 2.89 µM | 14.5 µM | 18.4 µM | 18.1 µM | 21 µM |  |  |  |  |  |  |  |  | 
11 | CC(SC(=S)N1CCOCC1)C(=O)Nc1nnc(-c2ccc(Cl)cc2)o1 (centres undefined) |  | 40.6 µM | > 100 µM |  | > 100 µM | 67.5 µM | > 100 µM | > 100 µM | > 100 µM | > 100 µM | > 100 µM |  |  |  |  |  |  |  |  | 
12 | COc1ccc(OC)c2sc(N3C(=O)/C(=C/c4cccc(Oc5ccccc5)c4)N=C3c3ccccc3)nc12 | > 100 µM |  | > 100 µM | > 100 µM | > 100 µM | > 100 µM | > 100 µM | > 100 µM | > 100 µM | > 100 µM | > 100 µM |  |  |  |  |  |  |  |  | 
13 | O=C1CC(O)c2cscc21 (centres undefined) | 45.8 µM | > 100 µM | > 100 µM | > 100 µM |  | > 100 µM | > 100 µM | > 100 µM | > 100 µM | > 100 µM | > 100 µM |  |  |  |  |  |  |  |  | 
14 | COc1ccc2nc3cc(Cl)ccc3c(NC(C)CCCN(CCCl)CCCl)c2c1 (centres undefined) | 1.12 µM | 0.502 µM |  | 2.3 µM | 11 µM | 1.5 µM | 3.17 µM |  |  | 9.61 µM |  |  |  |  |  |  |  |  |  | 
15 | COC(=O)c1cc2c(cc1Cl)Sc1nnc(Nc3ccccc3)n1S2(=O)=O | 6.13 µM | 5.36 µM | 17.7 µM | > 42 µM | 7.56 µM | 14.7 µM | 4.16 µM | 10 µM | 22.7 µM | 4.59 µM | 11.4 µM |  |  |  |  |  |  |  |  | 
16 | Cc1cccc2sc(NC(=O)NS(=O)(=O)n3cnc4ccccc43)nc12 | > 100 µM |  | 93.3 µM |  | 61.5 µM | 99.3 µM | > 100 µM | 95.3 µM | > 100 µM | 30.3 µM | 52.1 µM |  |  |  |  |  |  |  |  | 
17 | COc1ccc2nc3c(c(N)c2c1)C1CCC3C1(C)C (centres undefined) | 98.4 µM | > 100 µM | 68.3 µM | > 100 µM | > 100 µM | > 100 µM | > 100 µM | > 100 µM | > 100 µM | 31.9 µM | > 100 µM |  |  |  |  |  |  |  |  | 
18 | O=S(=O)(/N=C(\NO)Nc1ccc(Cl)cc1)c1cc(C(F)(F)F)cc(C(F)(F)F)c1 | > 100 µM |  | 37.2 µM | 90.4 µM |  | 31.2 µM | 31.3 µM | 31.5 µM | 37.6 µM |  | 60.5 µM |  |  |  |  |  |  |  |  | 
19 | Cc1ccc(S(=O)(=O)N(CC(O)COc2ccccc2)c2c(F)cccc2F)cc1 (centres undefined) | 95.8 µM | 61.4 µM | 43.8 µM | > 100 µM | 38.7 µM |  | 40.1 µM | 36.9 µM | 30.5 µM | 47.6 µM | 46.1 µM |  |  |  |  |  |  |  |  | 
20 | C=CCNC(=O)C(C)C1CCC2(C)C=CC(=O)C(C)=C2C1O (centres undefined) | > 100 µM |  |  | > 100 µM | > 100 µM | > 100 µM |  |  |  | > 100 µM |  |  |  |  |  |  |  |  |  | 
21 | Cc1ccc(S(=O)(=O)OC2CC(C(C)(C)C)CCC2c2ccccc2)cc1 (centres undefined) |  | > 100 µM | > 100 µM | > 100 µM | > 100 µM | > 100 µM | > 100 µM | > 100 µM | > 100 µM |  |  |  |  |  |  |  |  |  |  | 
22 | O=C1c2ccccc2C(=O)c2[nH]cnc21 | > 100 µM | > 100 µM |  | > 100 µM | > 100 µM | > 100 µM | > 100 µM |  |  | > 100 µM |  |  |  |  |  |  |  |  |  | 
23 | NCCOc1cccc(C2(N3CCCCC3)CCCCC2)c1 | 35.8 µM | 34.8 µM | 46.3 µM | 35.1 µM | 28.2 µM | 34.4 µM | > 100 µM | > 100 µM | 33.6 µM | 37.5 µM | 38.5 µM |  |  |  |  |  |  |  |  | 
24 | O=c1[nH]c2[nH]c(=S)[nH]c(=S)c2[nH]1 |  | > 100 µM | > 100 µM | > 100 µM | > 100 µM | > 100 µM | > 100 µM | > 100 µM | > 100 µM | > 100 µM | > 100 µM |  |  |  |  |  |  |  |  | 
